Assay results as given in patent publication US20250092065A1, “2-(INDAZOL-5-YL)-6-(PIPERIDIN-4-YL)-1,7-NAPHTHYRIDINE DERIVATIVES AND RELATED COMPOUNDS AS MODULATORS FOR SPLICING NUCLEIC ACIDS AND FOR THE TREATMENT OF PROLIFERATIVE DISEASES” (REMIX THERAPEUTICS INC., priority 2022, published 2025).
Where two headings read alike, the source gives them in different places.

Legend:
[1] = test system: HTT mRNA; assay: RT-qPCR splicing assay, HTT mRNA canonical (CJ) and alternative (AJ) junction; type: cell-based, human; settings: Homo sapiens; for AC50: HTT alternative junction mRNA increase, read-out: HTT AJ (increase in alternative junction mRNA, AC50)
Procedure: (§1) Compounds described herein were used to modulate RNA transcript abundance in cells. The expression of a target mRNA was measured by detecting the formation of an exon-exon junction in the canonical transcript (CJ). A compound mediated exon-inclusion event was detected by observing an increase in formation of a new junction with an alternative exon (AJ). Real-time qPCR assays were used to detect these splicing switches and interrogate the potency of various compounds towards different target genes. A high-throughput real time quantitative PCR (RT-qPCR) assay was developed to measure these two isoforms of the mRNA (CJ and AJ) for exemplary genes, such as HTT, SMN2, and MYB, together with a control housekeeping gene, GAPDH or GUSB or PPIA, used for normalization. Briefly, the A673 or K562 cell line was treated with various compounds described herein (e.g., compounds of Formula (I)). After treatment, the levels of the HTT, MYB, or SMN2 mRNA targets were determined from each sample of cell lysate by cDNA synthesis followed by qPCR.
(§2) The A673 cell line was cultured in DMEM with 10% FBS. Cells were diluted with full growth media and plated in a 96-well plate (15,000 cells in 100 ul media per well). The plate was incubated at 37° C. with 5% CO2 for 24 hours to allow cells to adhere. An 11-point 3-fold serial dilution of the compounds was made in DMSO then diluted in media in an intermediate plate. Compounds were transferred from the intermediate plate to the cell plate with the top dose at a final concentration of 10 uM in the well. Final DMSO concentration was kept at or below 0.25%. The cell plate was returned to the incubator at 37° C. with 5% CO2 for an additional 24 hours.
(§3) The K562 cell line was cultured in IMDM with 10% FBS. For K562, cells were diluted with full growth media and plated in either a 96-well plate (50,000 cells in 50 uL media per well) or a 384-well plate (8,000-40,000 cells in 45 uL media per well). An 11-point 3-fold serial dilution of the compounds were made in DMSO then diluted in media in an intermediate plate. Compound was transferred from the intermediate plate to the cell plate with the top dose at a final concentration of 10 uM in the well. Final DMSO concentration was kept at or below 0.25%. Final volume was 100 uL for 96-well plate and 50 uL for 384-well plate. The cell plate was then placed in an incubator at 37° C. with 5% CO2 for 24 hours.
(§4) The cells were then gently washed with 50 uL-100 uL cold PBS before proceeding to addition of lysis buffer. 30 uL-50 μL of room temperature lysis buffer with DNAse I (and optionally RNAsin) was added to each well. Cells were shaken/mixed thoroughly at room temperature for 5-10 minutes for lysis to take place and then 3 uL-5 μL of room temperature stop solution was added and wells were shaken/mixed again. After 2-5 minutes, the cell lysate plate was transferred to ice for RT-qPCR reaction setup. The lysates could also be frozen at −80° C. for later use.
(§5) In some cases, a direct lysis buffer was used. An appropriate volume of 3× lysis buffer (10 mM Tris, 150 mM NaCl, 1.5%-2.5% Igepal and 0.1-1 U/uL RNAsin, pH 7.4) was directly added to either K562 or A673 cells in media and mixed by pipetting 3 times. The plates were then incubated at room temperature with shaking/rocking for 20-50 minutes to allow for lysis to take place. After this time, the cell lysate plate was transferred to ice to set up for the RT-qPCR reactions. The lysates could also be frozen at −80° C. for later use.
(§6) To set up 10 uL RT-qPCR reactions, cell lysates were transferred to 384-well qPCR plates containing the master mix according to the table below. The plates were sealed, gently vortexed, and spun down before the run. The volumes were adjusted accordingly in some instances where the reaction was carried in 20 μL. The table below summarizes the components of the RT-qPCR reactions:
(§7) The RT-qPCR reaction was performed using a QuantStudio (ThermoFisher) under the following fast cycling conditions. […]

[2] = test system: SMN2 mRNA; assay: RT-qPCR splicing assay, SMN2 mRNA; type: cell-based, human; settings: Homo sapiens, canonical junction qPCR panel, Table 4; read-out: SMN2 IC50 (decrease in CJ mRNA levels)
Procedure: as §1, §2, §3, §4, §5, §6, §7

[3] = test system: K562 cells; assay: Cell Titer Glo 2.0 cell viability (toxicity) assay, K562; settings: 500 cells/well, 72 hours
[4] = test system: MYB mRNA; assay: RT-qPCR splicing assay, MYB mRNA canonical (CJ) and alternative (AJ) junction; type: cell-based, human; settings: Homo sapiens; for AC50: MYB alternative junction mRNA increase, read-out: MYB AJ (increase in alternative junction mRNA, AC50)
Procedure: as §1, §2, §3, §4, §5, §6, §7

[5] = RT-qPCR, HTT canonical junction mRNA decrease, read-out: HTT CJ (decrease in canonical junction mRNA, IC50)
[6] = canonical junction qPCR panel, Table 4, read-out: HTT IC50 (decrease in CJ mRNA levels)
[7] = RT-qPCR, MYB canonical junction mRNA decrease, read-out: MYB CJ (decrease in canonical junction mRNA, IC50)
[8] = canonical junction qPCR panel, Table 4, read-out: MYB IC50 (decrease in CJ mRNA levels)

Cc1cn2cc(-c3ncc4cc(N5C[C@@H](C)N[C@@H](C)C5)ccc4n3)ccc2n1 [Compound 832]
AC50 ([1]; RT-qPCR): > 10000 nM
IC50 [1, 5]: > 10000 nM
IC50 [1, 6]: > 10000 nM
IC50 [2]: < 100 nM
Effect of Exemplary Compounds on Cell Viability, K562 [3]: C (C represents 1000-9999 nM)
AC50 ([4]; RT-qPCR): 1000 to 10000 nM
IC50 [4, 7]: 100 to 1000 nM
IC50 [4, 8]: 100 to 1000 nM

C[C@@H]1CN(c2ccc3nc(-c4cc(F)c5nncn5c4)ncc3c2)C[C@H](C)N1 [Compound 833]
AC50 ([1]; RT-qPCR): 1000 to 10000 nM
IC50 [1, 5]: 1000 to 10000 nM
IC50 [1, 6]: 1000 to 10000 nM
IC50 [2]: 100 to 1000 nM
Effect of Exemplary Compounds on Cell Viability, K562 [3]: C (C represents 1000-9999 nM)
AC50 ([4]; RT-qPCR): 1000 to 10000 nM
IC50 [4, 7]: 1000 to 10000 nM
IC50 [4, 8]: 1000 to 10000 nM

C[C@@H]1CN(c2ccc3nc(-c4cc(F)c5nc(CO)cn5c4)ncc3c2)C[C@H](C)N1 [Compound 834, (6-{6-[(3R,5S)-3,5-dimethylpiperazin-1-yl]quinazolin-2-yl}-8-fluoroimidazo[1,2-a]pyridin-2-yl)methanol]
AC50 ([1]; RT-qPCR): 1000 to 10000 nM
IC50 [1, 5]: 1000 to 10000 nM
IC50 [1, 6]: 1000 to 10000 nM
IC50 [2]: < 100 nM
Effect of Exemplary Compounds on Cell Viability, K562 [3]: C (C represents 1000-9999 nM)
AC50 ([4]; RT-qPCR): 100 to 1000 nM
IC50 [4, 7]: 100 to 1000 nM
IC50 [4, 8]: 100 to 1000 nM

C[C@@H]1CN(c2ccc3nc(-c4cc(F)c5nc(CF)cn5c4)ncc3c2)C[C@H](C)N1 [Compound 835, 6-[(3R,5S)-3,5-dimethylpiperazin-1-yl]-2-[8-fluoro-2-(fluoromethyl)imidazo[1,2-a]pyridin-6-yl]quinazoline]
AC50 ([1]; RT-qPCR): 1000 to 10000 nM
IC50 [1, 5]: 1000 to 10000 nM
IC50 [1, 6]: 1000 to 10000 nM
IC50 [2]: < 100 nM
Effect of Exemplary Compounds on Cell Viability, K562 [3]: B (B represents 100-1000 nM)
AC50 ([4]; RT-qPCR): 100 to 1000 nM
IC50 [4, 7]: 100 to 1000 nM
IC50 [4, 8]: 100 to 1000 nM

CCc1cn2cc(-c3ncc4cc(N5C[C@@H](C)N[C@@H](C)C5)ccc4n3)cc(F)c2n1 [Compound 836]
AC50 ([1]; RT-qPCR): > 10000 nM
IC50 [1, 5]: 1000 to 10000 nM
IC50 [1, 6]: 1000 to 10000 nM
IC50 [2]: 100 to 1000 nM
Effect of Exemplary Compounds on Cell Viability, K562 [3]: C (C represents 1000-9999 nM)
AC50 ([4]; RT-qPCR): 1000 to 10000 nM
IC50 [4, 7]: > 10000 nM
IC50 [4, 8]: > 10000 nM

Cc1cn2cc(-c3ncc4cc(N5C[C@@H](C)N[C@@H](C)C5)ccc4n3)cc(Cl)c2n1 [Compound 896]
Effect of Exemplary Compounds on Cell Viability, K562 [3]: B (B represents 100-1000 nM)

Cn1cc2cc(-c3ncc4cc(N5CC[C@H](NC(C)(C)C)C5)ccc4n3)c(O)c(F)c2n1 [Compound 929]
AC50 ([1]; RT-qPCR): 100 to 1000 nM
IC50 [1, 5]: 1000 to 10000 nM
IC50 [1, 6]: 1000 to 10000 nM
IC50 [2]: < 100 nM
AC50 ([4]; RT-qPCR): < 100 nM
IC50 [4, 7]: < 100 nM
IC50 [4, 8]: < 100 nM

Cn1cc2cc(-c3ncc4cc(N5CC[C@@H](NC(C)(C)C)C5)ccc4n3)c(O)c(F)c2n1 [Compound 930]
AC50 ([1]; RT-qPCR): > 10000 nM
IC50 [1, 5]: 1000 to 10000 nM
IC50 [1, 6]: 1000 to 10000 nM
IC50 [2]: < 100 nM
AC50 ([4]; RT-qPCR): 100 to 1000 nM
IC50 [4, 7]: 100 to 1000 nM
IC50 [4, 8]: 100 to 1000 nM
